From PMC7143549, “Anticancer Activities of Meroterpenoids Isolated from the Brown Alga Cystoseira usneoides against the Human Colon Cancer Cells HT-29” (Foods, 2020)
≈ marks a conversion by molar mass, not a printed value.

What was measured:
HT-29 colon cancer cells = assay: Annexin V-FITC/PI flow cytometry apoptosis induction assay; assay type: cell-based, human; conditions: 24 h; for necrosis (dead cells): 30 μg/mL
Protocol: Quantitative assessment of apoptosis was performed by flow cytometry using an Annexin V-FITC Apoptosis Detection Kit. Briefly, 1 × 10^6 HT-29 cells were seeded per well in six-well plates and incubated for 24 h, followed by the addition of the AMTs dissolved in DMSO (final concentrations of 10, 20, and 30 µg/mL for compounds 1, 2, 5, 6, 7, and 8, and 30, 60, and 90 µg/mL for compounds 3 and 4, and less than 0.05% DMSO) and incubation for 24 h. Curcumin (final concentrations of 50 and 75 μM) was used as positive control. The cells were then washed, harvested with trypsin, and centrifuged at 1500 rpm (5 min, 25 °C). The pellet was resuspended in 195 µL of 1 × Annexin buffer and then stained with 5 μL of Annexin V-FITC and 10 μL of PI for 10 min at room temperature, in the dark. To this mixture 200 μL of 1 × Annexin buffer was added before analysis using a Cytomics FC500 flow cytometer (Beckman Coulter, Indianapolis, IN, USA). Following a gating strategy, flow cytometry plots of size (FS) and complexity (SS) of the HT-29 cells were previously established for the elaboration of a measurement protocol. The normal healthy cells, early apoptosis, late apoptosis, and necrotic populations were represented by annexin V-negative/PI-negative population, annexin V-positive/PI-negative, annexin V-positive/PI-positive and annexin-negative/PI-positive cells, respectively. A total of 10,000 cellular events in each sample were analyzed using DML program.

p-AKT in HT-29 cells = assay: Western blot of phosphorylated AKT; assay type: cell-based, human; conditions: 24 h; 10 and 20 μg/mL for 1, 2, 5, 6, 7, 8; 30 and 60 μg/mL for 3 and 4
Protocol: (§1) Cells were cultured to 80% confluence at 37 °C. After 24 h of treatment with the compounds (10 and 20 µg/mL for compounds 1, 2, 5, 6, 7, and 8, and 30 and 60 µg/mL for compounds 3 and 4), HT-29 cells were rinsed twice with ice-cold PBS, and then lysed immediately in lysis buffer (250 mM NaCl, 50 mM Tris (pH 7.5), 0.5 mM EDTA, 5 mM EGTA, 8 mM MgCl2, 1 mM PMSF, 0.01 mg/mL pepstatin A, 0.01 mg/mL leupeptin, 0.01 mg/mL aprotinin, 1% Triton X-100). After centrifugation at 12,000 g for 3 min at 4°C to separate the cellular debris, the supernatant was collected and stored at −80°C until use. The protein concentrations were determined using Bio-Rad Protein Assay (BioRad, Richmond, CA, USA), according to the manufacturer’s instructions.
(§2) Equal protein content (50 μg) samples of cell lysates were separated on 10% SDS–polyacrylamide gel and transferred to polyvinylidene difluoride membranes (Hybond-P, Amershan Biosciences, Little Chalfont, UK). The membranes were blocked with 5% (w/v) non-fat dry milk in Tris-buffered saline containing 0.1% Tween-20 buffer (pH 7.4) (TBST) for 1 h at room temperature and incubated with agitation with specific antibodies: anti-pERK1/2 (Cell Signaling; 1:1000), anti-pJNK (Cell Signaling; 1:1000), anti-pAKT (Cell Signaling; 1:1000), anti-β-actin (Sigma-Aldrich; 1:500). Membranes were incubated overnight at 4°C with gentle shaking. The secondary antibody was a peroxidase-conjugated goat anti-mouse or -rabbit antibody (1:10,000; DakoCytomation, Carpinteria, CA, USA). After washing the membrane three times in TBST buffer (10 min), the signals were detected using an enhanced chemiluminescence light-detecting kit (Super-Signal West Pico Chemiluminescent Substrate, Pierce, IL, USA), according to the manufacturer’s instructions and exposed to an X-ray film (GE Healthcare Ltd., Amersham, UK). The protein band densities were analyzed and quantified with a Scientific Imaging Systems (Biophotonics ImageJ Analysis Software, National Institute of Mental Health, Bethesda, MD, USA). β-actin was used to confirm the equal loading and transfer of proteins.

[1] = test system: HT-29 human colon carcinoma cells; assay: Sulforhodamine B (SRB) cell viability assay, HT-29; assay type: cell-based; conditions: for IC50: Homo sapiens, HT-29, 72 h; for IC50 / IC50 HT-29: colon cancer cells, 72 h of treatment, SRB, mean ± SE of three experiments; for Selectivity Index (SI): IC50 for normal cells CCD 841 CoN / IC50 for cancer cells HT-29
Protocol: (§3) Cell viability was quantified using the Sulforhodamine B assay described by Skehan et al.. Cells were plated with a density of 5 × 10^3 (HT-29) and 1 × 10^4 (CCD 841 CoN) cells/well and allowed to attach at 37 °C in an atmosphere with 5% CO2. After 24 h, the AMTs dissolved in DMSO were added to the cells (final concentrations of 10, 20, 30, and 50 µg/mL and less than 0.05% of DMSO) and the plates were incubated for 72 h. Then, the cells were fixed by adding 50 μL of TCA (50%) to each well and the plates were maintained for 1 h at 4 °C. The plates were washed five times with deionized water, air-dried, and stained for 30 min at room temperature with 100 μL of 0.4% (w/v) SRB prepared in 1% (v/v) acetic acid. The plates were rinsed quickly five times with 1% acetic acid to remove unbound dye, followed by air-drying. The bound dye was solubilized in 2 mM Tris base (100 μL/well) for 5 min. Optical densities were read on a microplate reader (Spectrophotometer LabsystemsMultiskan EX, λ 492 nm). Three independent assays were conducted, each one in duplicate. A standard curve was constructed for each experiment and used for converting the measured optical density values into numbers of viable cells/well. The inhibition rate was used to evaluate the cell viability and its algorithm was the following formula: ((ODcontrol − ODtreatment)/ODcontrol) × 100; OD, optical density. The OD492 for control cells was taken as 100% viability. The half maximal inhibitory concentration (IC50) was calculated. The selectivity index (SI) of each compound was calculated as IC50 of the compound against the CCD 841 CoN normal cell line/IC50 of the same compound against the HT-29 cancer cell line.

[2] = test system: normal human colonic epithelial cells CCD 841 CoN; assay: Sulforhodamine B (SRB) cell viability assay, CCD 841 CoN; assay type: cell-based; conditions: normal colon cells, 72 h of treatment, mean ± SE of three experiments, read-out: IC50 CCD841 CoN
Protocol: as §3

p-JNK in HT-29 cells = assay: Western blot of phosphorylated JNK; assay type: cell-based, human; conditions: 24 h; 10 and 20 μg/mL for 1, 2, 5, 6, 7, 8; 30 and 60 μg/mL for 3 and 4
Protocol: as §1, §2

Structure (SMILES) | IC50 [1] | IC50 HT-29 [1] | necrosis (dead cells) (HT-29 colon cancer cells) | expression of p-AKT protein vs control (p-AKT in HT-29 cells) | Selectivity Index (SI) [1] | IC50 [2] | early apoptotic cells (HT-29 colon cancer cells; 30 μg/mL (Figure 3B)) | late apoptotic cells (HT-29 colon cancer cells; 30 μg/mL (Figure 3B)) | viability at 30 µg/mL (HT-29 colon cancer cells; Homo sapiens, HT-29, 30 μg/mL (Figure 3B), read-out: viable cells) | phospho-JNK level vs control (p-JNK in HT-29 cells) | early apoptotic cells (Annexin V+PI-) (HT-29 colon cancer cells; 90 μg/mL) | late apoptotic cells (Annexin V+PI+) (HT-29 colon cancer cells; 90 μg/mL) | total percentage of apoptotic cells (HT-29 colon cancer cells; 90 μg/mL) | induction of apoptosis or death of HT-29 cells (HT-29 colon cancer cells; 4 tested at 30-90 μg/mL, 7 at 10-30 μg/mL)
COc1c(C)cc(O)cc1/C=C/C(C)(O)CC(=O)/C=C(/C)CCCC(C)C(=O)/C=C/C(C)(C)O (centres unmarked) [Compound 7, cystodione A] | 14 ± 1.33 µg/mL (≈ 29.6 µM) | – | – | significantly downregulated | >3.57 | > 50 µg/mL | – | – | – | decreased phosphorylation | – | – | – | did not induce neither apoptosis nor death
COc1c(C)cc(O)cc1/C=C/C(C)(O)CC(=O)/C=C(\C)CCCC(C)C(=O)/C=C/C(C)(C)O (centres unmarked) [Compound 8, cystodione B] | 9.14 µg/mL (≈ 19.3 µM) | 9.08 ± 1.04 µg/mL (≈ 19.2 µM) | 20.12% | significantly downregulated | 3.51 | 31.9 ± 7.51 µg/mL (≈ 67.5 µM) | – | – | – | decreased phosphorylation | – | – | – | –

Further lines, with some results ahead:

IC50 [1] | IC50 HT-29 [1] | Structure (SMILES) | necrosis (dead cells) (HT-29 colon cancer cells) | expression of p-AKT protein vs control (p-AKT in HT-29 cells) | Selectivity Index (SI) [1] | IC50 [2] | early apoptotic cells (HT-29 colon cancer cells; 30 μg/mL (Figure 3B)) | late apoptotic cells (HT-29 colon cancer cells; 30 μg/mL (Figure 3B)) | viability at 30 µg/mL (HT-29 colon cancer cells; Homo sapiens, HT-29, 30 μg/mL (Figure 3B), read-out: viable cells) | phospho-JNK level vs control (p-JNK in HT-29 cells) | early apoptotic cells (Annexin V+PI-) (HT-29 colon cancer cells; 90 μg/mL) | late apoptotic cells (Annexin V+PI+) (HT-29 colon cancer cells; 90 μg/mL) | total percentage of apoptotic cells (HT-29 colon cancer cells; 90 μg/mL) | induction of apoptosis or death of HT-29 cells (HT-29 colon cancer cells; 4 tested at 30-90 μg/mL, 7 at 10-30 μg/mL)
8.81 ± 1.55 µg/mL (≈ 18.6 µM) | – | COc1c(C)cc(O)cc1C/C=C(\C)CC(=O)/C=C(/C)CCCC(C)(O)C(=O)/C=C/C(C)(C)O (centres unmarked) [Compound 1, usneoidone Z] | 31.22% | significantly downregulated | 5.26 | 46.4 ± 3.87 µg/mL (≈ 98.2 µM) | – | – | – | – | – | – | – | –
9.14 ± 0.23 µg/mL (≈ 19.3 µM) | – | COc1c(C)cc(O)cc1C/C=C(\C)CC(=O)/C=C(\C)CCCC(C)(O)C(=O)/C=C/C(C)(C)O (centres unmarked) [Compound 2, 11-hydroxy-1′-O-methylamentadione] | – | significantly downregulated | 2.34 | 21.4 ± 2.5 µg/mL (≈ 45.3 µM) | 1.94% | 12.94% | 57.7% | decreased phosphorylation | – | – | – | –
36.9 µg/mL (≈ 103 µM) | 34.34 ± 1.81 µg/mL (≈ 95.8 µM) | COc1c(C)cc(O)cc1C/C=C(\C)CC(=O)/C=C(\C)CCCC(C)=O [Compound 3, cystomexicone B] | – | significantly downregulated | >1.45 | > 50 µg/mL | – | – | – | decreased phosphorylation | 4.47% | 52.12% | 56.6% | –
